{"source": "patent US20240065988A1", "about": "“COMBINED USE OF KETAMINE AND RETIGABINE (EZOGABINE) FOR THE TREATMENT OF PSYCHIATRIC DISORDERS” (Yeda Research and Development Co. Ltd., priority 2021, published 2024)", "tested_on": "single cells from the ventral hippocampus (vHipp)", "experiment": "Single-cell RNA sequencing (scRNA-seq) of the ventral hippocampus after ketamine treatment; differential expression per cell type", "key": {"[1]": {"conditions": "Endothelial, ketamine 10 mg/kg i.p."}, "[2]": {"conditions": "Endothelial, ketamine 10 mg/kg i.p. vs saline"}}}
{"smiles": "CNC1(c2ccccc2Cl)CCCCC1=O", "note": "(racemic) [ketamine, (R,S)-ketamine]", "values": [{"measurement": "Change", "setting": "Atxn2, Glut Neurons", "value": "Down"}, {"measurement": "Mean-Ket", "setting": "Atxn2, Glut Neurons", "value": 1.752}, {"measurement": "logFC", "setting": "Atxn2, Glut Neurons", "value": "−0.131"}, {"measurement": "Change", "setting": "Cars2, Glut Neurons", "value": "Down"}, {"measurement": "Mean-Ket", "setting": "Cars2, Glut Neurons", "value": 2.514}, {"measurement": "logFC", "setting": "Cars2, Glut Neurons", "value": "−0.095"}, {"measurement": "Change", "setting": "Casc4, Glut Neurons", "value": "Down"}, {"measurement": "Mean-Ket", "setting": "Casc4, Glut Neurons", "value": 3.269}, {"measurement": "logFC", "setting": "Casc4, Glut Neurons", "value": "−0.109"}, {"measurement": "Change", "setting": "Ccdc62, Glut Neurons", "value": "Down"}, {"measurement": "Mean-Ket", "setting": "Ccdc62, Glut Neurons", "value": 1.370}, {"measurement": "logFC", "setting": "Ccdc62, Glut Neurons", "value": "−0.131"}, {"measurement": "Change", "setting": "Cep89, Glut Neurons", "value": "Down"}, {"measurement": "Mean-Ket", "setting": "Cep89, Glut Neurons", "value": 2.584}, {"measurement": "logFC", "setting": "Cep89, Glut Neurons", "value": "−0.104"}, {"measurement": "Change", "setting": "Chn1, Glut Neurons", "value": "Down"}, {"measurement": "Mean-Ket", "setting": "Chn1, Glut Neurons", "value": 1.219}, {"measurement": "logFC", "setting": "Chn1, Glut Neurons", "value": "−0.192"}, {"measurement": "Change", "setting": "Chpt1, Glut Neurons", "value": "Down"}, {"measurement": "Mean-Ket", "setting": "Chpt1, Glut Neurons", "value": 2.768}, {"measurement": "logFC", "setting": "Chpt1, Glut Neurons", "value": "−0.092"}, {"measurement": "Change", "setting": "Cox6b1, Glut Neurons", "value": "Down"}, {"measurement": "Mean-Ket", "setting": "Cox6b1, Glut Neurons", "value": 1.063}, {"measurement": "logFC", "setting": "Cox6b1, Glut Neurons", "value": "−0.161"}, {"measurement": "Change", "setting": "Cpe, Glut Neurons", "value": "Down"}, {"measurement": "Mean-Ket", "setting": "Cpe, Glut Neurons", "value": 1.060}, {"measurement": "logFC", "setting": "Cpe, Glut Neurons", "value": "−0.123"}, {"measurement": "Change", "setting": "Cxcr2, Glut Neurons", "value": "Down"}, {"measurement": "Mean-Ket", "setting": "Cxcr2, Glut Neurons", "value": 2.721}, {"measurement": "logFC", "setting": "Cxcr2, Glut Neurons", "value": "−0.098"}, {"measurement": "Change", "setting": "D3Ertd254e, Glut Neurons", "value": "Down"}, {"measurement": "Mean-Ket", "setting": "D3Ertd254e, Glut Neurons", "value": 1.540}, {"measurement": "logFC", "setting": "D3Ertd254e, Glut Neurons", "value": "−0.179"}, {"measurement": "Change", "setting": "D6Wsu163e, Glut Neurons", "value": "Down"}, {"measurement": "Mean-Ket", "setting": "D6Wsu163e, Glut Neurons", "value": 2.314}, {"measurement": "logFC", "setting": "D6Wsu163e, Glut Neurons", "value": "−0.101"}, {"measurement": "Change", "setting": "Dars, Glut Neurons", "value": "Down"}, {"measurement": "Mean-Ket", "setting": "Dars, Glut Neurons", "value": 1.380}, {"measurement": "logFC", "setting": "Dars, Glut Neurons", "value": "−0.115"}, {"measurement": "Change", "setting": "Dhx30, Glut Neurons", "value": "Down"}, {"measurement": "Mean-Ket", "setting": "Dhx30, Glut Neurons", "value": 1.310}, {"measurement": "logFC", "setting": "Dhx30, Glut Neurons", "value": "−0.133"}, {"measurement": "Change", "setting": "Dpp10, Glut Neurons", "value": "Up"}, {"measurement": "Mean-Ket", "setting": "Dpp10, Glut Neurons", "value": 1.344}, {"measurement": "logFC", "setting": "Dpp10, Glut Neurons", "value": 0.216}, {"measurement": "Change", "setting": "Eef1akmt3, Astrocytes", "value": "Up"}, {"measurement": "Mean-Ket", "setting": "Eef1akmt3, Astrocytes", "value": 1.918}, {"measurement": "logFC", "setting": "Eef1akmt3, Astrocytes", "value": 0.336}, {"measurement": "Change", "setting": "Eif4a2, Glut Neurons", "value": "Down"}, {"measurement": "Mean-Ket", "setting": "Eif4a2, Glut Neurons", "value": 1.524}, {"measurement": "logFC", "setting": "Eif4a2, Glut Neurons", "value": "−0.234"}, {"measurement": "Change", "setting": "Enah, Glut Neurons", "value": "Down"}, {"measurement": "Mean-Ket", "setting": "Enah, Glut Neurons", "value": 2.212}, {"measurement": "logFC", "setting": "Enah, Glut Neurons", "value": "−0.108"}, {"measurement": "Akap5 Mean-Ket", "setting": "[1]", "value": 3.573}, {"measurement": "Eef1akmt3 Mean-Ket", "setting": "[1]", "value": 1.735}, {"measurement": "Ilf2 Mean-Ket", "setting": "[1]", "value": 1.206}, {"measurement": "Lrrc17 Mean-Ket", "setting": "[1]", "value": 2.859}, {"measurement": "Saa3 Mean-Ket", "setting": "[1]", "value": 1.407}, {"measurement": "Slco1a4 Mean-Ket", "setting": "[1]", "value": 1.231}, {"measurement": "Vps8 Mean-Ket", "setting": "[1]", "value": 1.667}, {"measurement": "Akap5 Change", "setting": "[2]", "value": "Down"}, {"measurement": "Akap5 logFC", "setting": "[2]", "value": "−0.447"}, {"measurement": "Eef1akmt3 Change", "setting": "[2]", "value": "Up"}, {"measurement": "Eef1akmt3 logFC", "setting": "[2]", "value": 0.511}, {"measurement": "Ilf2 Change", "setting": "[2]", "value": "Up"}, {"measurement": "Ilf2 logFC", "setting": "[2]", "value": 0.361}, {"measurement": "Lrrc17 Change", "setting": "[2]", "value": "Down"}, {"measurement": "Lrrc17 logFC", "setting": "[2]", "value": "−0.407"}, {"measurement": "Saa3 Change", "setting": "[2]", "value": "Up"}, {"measurement": "Saa3 logFC", "setting": "[2]", "value": 0.366}, {"measurement": "Slco1a4 Change", "setting": "[2]", "value": "Up"}, {"measurement": "Slco1a4 logFC", "setting": "[2]", "value": 0.415}, {"measurement": "Vps8 Change", "setting": "[2]", "value": "Down"}, {"measurement": "Vps8 logFC", "setting": "[2]", "value": "−0.398"}, {"measurement": "Change", "setting": "Exosc5, Glut Neurons", "value": "Down"}, {"measurement": "Mean-Ket", "setting": "Exosc5, Glut Neurons", "value": 1.196}, {"measurement": "logFC", "setting": "Exosc5, Glut Neurons", "value": "−0.109"}, {"measurement": "Change", "setting": "Fam193a, Glut Neurons", "value": "Down"}, {"measurement": "Mean-Ket", "setting": "Fam193a, Glut Neurons", "value": 2.472}, {"measurement": "logFC", "setting": "Fam193a, Glut Neurons", "value": "−0.101"}, {"measurement": "Change", "setting": "Fgd4, Glut Neurons", "value": "Up"}, {"measurement": "Mean-Ket", "setting": "Fgd4, Glut Neurons", "value": 2.397}, {"measurement": "logFC", "setting": "Fgd4, Glut Neurons", "value": 0.144}, {"measurement": "Change", "setting": "Foxr1, Glut Neurons", "value": "Down"}, {"measurement": "Mean-Ket", "setting": "Foxr1, Glut Neurons", "value": 2.380}, {"measurement": "logFC", "setting": "Foxr1, Glut Neurons", "value": "−0.113"}, {"measurement": "Change", "setting": "Fubp1, Glut Neurons", "value": "Down"}, {"measurement": "Mean-Ket", "setting": "Fubp1, Glut Neurons", "value": 2.828}, {"measurement": "logFC", "setting": "Fubp1, Glut Neurons", "value": "−0.093"}, {"measurement": "Change", "setting": "Furin, Glut Neurons", "value": "Down"}, {"measurement": "Mean-Ket", "setting": "Furin, Glut Neurons", "value": 1.335}, {"measurement": "logFC", "setting": "Furin, Glut Neurons", "value": "−0.132"}, {"measurement": "Change", "setting": "Gapdh-ps15, Astrocytes", "value": "Down"}, {"measurement": "Mean-Ket", "setting": "Gapdh-ps15, Astrocytes", "value": 1.333}, {"measurement": "logFC", "setting": "Gapdh-ps15, Astrocytes", "value": "−0.157"}, {"measurement": "Change", "setting": "Gclm, Glut Neurons", "value": "Down"}, {"measurement": "Mean-Ket", "setting": "Gclm, Glut Neurons", "value": 0.984}, {"measurement": "logFC", "setting": "Gclm, Glut Neurons", "value": "−0.113"}, {"measurement": "Change", "setting": "Gmeb1, Glut Neurons", "value": "Down"}, {"measurement": "Mean-Ket", "setting": "Gmeb1, Glut Neurons", "value": 2.782}, {"measurement": "logFC", "setting": "Gmeb1, Glut Neurons", "value": "−0.087"}, {"measurement": "Change", "setting": "Golga3, Astrocytes", "value": "Down"}, {"measurement": "Mean-Ket", "setting": "Golga3, Astrocytes", "value": 1.515}, {"measurement": "logFC", "setting": "Golga3, Astrocytes", "value": "−0.136"}, {"measurement": "Change", "setting": "H2-T23, Glut Neurons", "value": "Down"}, {"measurement": "Mean-Ket", "setting": "H2-T23, Glut Neurons", "value": 1.757}, {"measurement": "logFC", "setting": "H2-T23, Glut Neurons", "value": "−0.173"}, {"measurement": "Change", "setting": "Hook3, Glut Neurons", "value": "Down"}, {"measurement": "Mean-Ket", "setting": "Hook3, Glut Neurons", "value": 2.556}, {"measurement": "logFC", "setting": "Hook3, Glut Neurons", "value": "−0.089"}, {"measurement": "Change", "setting": "Hsd3b2, Glut Neurons", "value": "Up"}, {"measurement": "Mean-Ket", "setting": "Hsd3b2, Glut Neurons", "value": 1.162}, {"measurement": "logFC", "setting": "Hsd3b2, Glut Neurons", "value": 0.193}, {"measurement": "Change", "setting": "Il17ra, Glut Neurons", "value": "Up"}, {"measurement": "Mean-Ket", "setting": "Il17ra, Glut Neurons", "value": 1.490}, {"measurement": "logFC", "setting": "Il17ra, Glut Neurons", "value": 0.252}, {"measurement": "Change", "setting": "Ilf2, Astrocytes", "value": "Up"}, {"measurement": "Mean-Ket", "setting": "Ilf2, Astrocytes", "value": 1.350}, {"measurement": "logFC", "setting": "Ilf2, Astrocytes", "value": 0.295}, {"measurement": "Change", "setting": "Ipo7, Glut Neurons", "value": "Down"}, {"measurement": "Mean-Ket", "setting": "Ipo7, Glut Neurons", "value": 1.687}, {"measurement": "logFC", "setting": "Ipo7, Glut Neurons", "value": "−0.119"}, {"measurement": "Change", "setting": "Kcnj16, Glut Neurons", "value": "Up"}, {"measurement": "Mean-Ket", "setting": "Kcnj16, Glut Neurons", "value": 1.052}, {"measurement": "logFC", "setting": "Kcnj16, Glut Neurons", "value": 0.227}, {"measurement": "Change", "setting": "Kif3a, Glut Neurons", "value": "Down"}, {"measurement": "Mean-Ket", "setting": "Kif3a, Glut Neurons", "value": 1.198}, {"measurement": "logFC", "setting": "Kif3a, Glut Neurons", "value": "−0.141"}, {"measurement": "Change", "setting": "Loxl2, Glut Neurons", "value": "Down"}, {"measurement": "Mean-Ket", "setting": "Loxl2, Glut Neurons", "value": 2.605}, {"measurement": "logFC", "setting": "Loxl2, Glut Neurons", "value": "−0.098"}, {"measurement": "Change", "setting": "Lrrc17, Astrocytes", "value": "Down"}, {"measurement": "Mean-Ket", "setting": "Lrrc17, Astrocytes", "value": 3.291}, {"measurement": "logFC", "setting": "Lrrc17, Astrocytes", "value": "−0.192"}, {"measurement": "Change", "setting": "Lsm8, Glut Neurons", "value": "Down"}]}
